Results: PubChem BioAssay (NCI)
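1) Cells in 96-well plates. 2) Compound, 48 h, 5 concentrations. 3) Linear interpolation between surrounding doses. 4) Unreached endpoint = highest concentration. Here, GI50 denotes the concentration required for 50% inhibition of growth. TGI denotes the concentration required for complete inhibition of growth.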

Columns and labels:
Experiment in all cases: inhibition of tumour cell growth, NCI panel, 48 h
[1] = tested on: HT29 colon
[2] = tested on: NCI/ADR-RES ovarian
[3] = tested on: IGROV1 ovarian
[4] = tested on: COLO 205 colon
[5] = tested on: MDA-MB-435
[6] = tested on: HCT-116 colon
[7] = tested on: CAKI-1 renal
[8] = tested on: SNB-19 CNS
[9] = tested on: LOX IMVI melanoma
[10] = tested on: T-47D breast
[11] = tested on: CCRF-CEM leukemia
[12] = tested on: K-562 leukemia
[13] = tested on: NCI-H226 lung
[14] = tested on: U251 CNS
[15] = tested on: UO-31 renal
[16] = tested on: HCC-2998 colon
[17] = tested on: OVCAR-5 ovarian
[18] = tested on: OVCAR-8 ovarian
[19] = tested on: M14 melanoma
[20] = tested on: SF-268 CNS
[21] = tested on: RPMI-8226 leukemia
[22] = tested on: SR leukemia
[23] = tested on: PC-3 prostate
[24] = tested on: SF-539 CNS
[25] = tested on: BT-549 breast
[26] = tested on: NCI-H460 lung
[27] = tested on: A498 renal
[28] = tested on: MALME-3M melanoma
[29] = tested on: UACC-257 melanoma
[30] = tested on: TK-10 renal
[31] = tested on: ACHN renal
[32] = tested on: MDA-MB-231 breast
[33] = tested on: HOP-92 NSCLC
[34] = tested on: HCT-15 colon
[35] = tested on: A549 NSCLC
[36] = tested on: NCI-H23 lung
[37] = tested on: SW-620 colon
[38] = tested on: SNB-75 CNS
[39] = tested on: DU-145 prostate
[40] = tested on: SK-MEL-28 melanoma
[41] = tested on: NCI-H522 lung
[42] = tested on: MOLT-4 leukemia
[43] = tested on: MCF7 breast
[44] = tested on: HS 578T breast
[45] = tested on: SF-295 CNS
[46] = tested on: OVCAR-4 ovarian
[47] = tested on: OVCAR-3 ovarian
[48] = tested on: HOP-62 NSCLC
[49] = tested on: UACC-62 melanoma
[50] = tested on: SN12C renal
[51] = tested on: RXF 393 renal
[52] = tested on: SK-MEL-2 melanoma
[53] = tested on: SK-MEL-5 melanoma
[54] = tested on: SK-OV-3 ovarian
[55] = tested on: KM12 colon
[56] = tested on: HL-60(TB) leukemia
[57] = tested on: 786-0 renal

Q: For `O=C1NC(=NCc2ccccc2Cl)S/C1=C\c1ccc2ncccc2c1`, which GI50 [1] is on record?
A: > 25 µM

Q: What about the TGI [1] of the same molecule?
A: > 25 µM

Q: And the GI50 [2]?
A: > 25 µM

Q: What about the TGI [2] of the same molecule?
A: > 25 µM

Q: What about the GI50 [3] of the same molecule?
A: 9.01 µM

Q: And the TGI [3]?
A: > 25 µM

Q: And the GI50 [4]?
A: 8.04 µM

Q: What about the TGI [4] of the same molecule?
A: > 25 µM

Q: And the GI50 [5]?
A: 6.83 µM

Q: And the TGI [5]?
A: > 25 µM

Q: What about the GI50 [6] of the same molecule?
A: 3.98 µM

Q: And the TGI [6]?
A: > 25 µM

Q: What about the GI50 [7] of the same molecule?
A: 4.83 µM

Q: What about the TGI [7] of the same molecule?
A: > 19.5 µM

Q: What about the GI50 [8] of the same molecule?
A: 13.2 µM

Q: What about the TGI [8] of the same molecule?
A: > 25 µM

Q: And the GI50 [9]?
A: 8.86 µM

Q: And the TGI [9]?
A: > 25 µM

Q: What about the GI50 [10] of the same molecule?
A: > 25 µM

Q: What about the TGI [10] of the same molecule?
A: > 25 µM

Q: And the GI50 [11]?
A: 11.2 µM

Q: And the TGI [11]?
A: > 25 µM

Q: What about the GI50 [12] of the same molecule?
A: 12.7 µM

Q: And the TGI [12]?
A: > 25 µM

Q: And the GI50 [13]?
A: > 18.3 µM

Q: And the TGI [13]?
A: > 25 µM

Q: And the GI50 [14]?
A: 6.44 µM

Q: And the TGI [14]?
A: > 25 µM

Q: What about the GI50 [15] of the same molecule?
A: > 13.6 µM

Q: And the TGI [15]?
A: > 25 µM

Q: And the GI50 [16]?
A: > 25 µM

Q: What about the TGI [16] of the same molecule?
A: > 25 µM

Q: What about the GI50 [17] of the same molecule?
A: > 25 µM

Q: What about the TGI [17] of the same molecule?
A: > 25 µM

Q: And the GI50 [18]?
A: > 25 µM

Q: What about the TGI [18] of the same molecule?
A: > 25 µM

Q: What about the GI50 [19] of the same molecule?
A: 16.3 µM

Q: What about the TGI [19] of the same molecule?
A: > 25 µM

Q: What about the GI50 [20] of the same molecule?
A: 18.9 µM

Q: And the TGI [20]?
A: > 25 µM

Q: What about the GI50 [21] of the same molecule?
A: 17 µM

Q: What about the TGI [21] of the same molecule?
A: > 25 µM

Q: What about the GI50 [22] of the same molecule?
A: 1.04 µM

Q: What about the TGI [22] of the same molecule?
A: > 19.6 µM

Q: What about the GI50 [23] of the same molecule?
A: > 25 µM

Q: What about the TGI [23] of the same molecule?
A: > 25 µM

Q: And the GI50 [24]?
A: 3.59 µM

Q: And the TGI [24]?
A: > 25 µM

Q: What about the GI50 [25] of the same molecule?
A: 7.86 µM

Q: What about the TGI [25] of the same molecule?
A: > 25 µM

Q: What about the GI50 [26] of the same molecule?
A: 10.6 µM

Q: And the TGI [26]?
A: > 25 µM

Q: And the GI50 [27]?
A: 4.21 µM

Q: And the TGI [27]?
A: > 21.5 µM

Q: What about the GI50 [28] of the same molecule?
A: > 20.7 µM

Q: And the TGI [28]?
A: > 25 µM

Q: What about the GI50 [29] of the same molecule?
A: > 25 µM

Q: And the TGI [29]?
A: > 25 µM

Q: And the GI50 [30]?
A: 6.02 µM

Q: What about the TGI [30] of the same molecule?
A: > 25 µM

Q: What about the GI50 [31] of the same molecule?
A: 9.54 µM

Q: What about the TGI [31] of the same molecule?
A: > 25 µM

Q: What about the GI50 [32] of the same molecule?
A: > 25 µM

Q: What about the TGI [32] of the same molecule?
A: > 25 µM

Q: What about the GI50 [33] of the same molecule?
A: 5.85 µM

Q: What about the TGI [33] of the same molecule?
A: > 22.1 µM

Q: What about the GI50 [34] of the same molecule?
A: 4.33 µM

Q: And the TGI [34]?
A: > 25 µM

Q: What about the GI50 [35] of the same molecule?
A: 8.5 µM

Q: What about the TGI [35] of the same molecule?
A: > 25 µM

Q: And the GI50 [36]?
A: 13.5 µM

Q: And the TGI [36]?
A: > 25 µM

Q: What about the GI50 [37] of the same molecule?
A: 6.61 µM

Q: What about the TGI [37] of the same molecule?
A: > 25 µM

Q: And the GI50 [38]?
A: 0.785 µM

Q: What about the TGI [38] of the same molecule?
A: > 21.8 µM

Q: What about the GI50 [39] of the same molecule?
A: 11.2 µM

Q: And the TGI [39]?
A: > 25 µM

Q: What about the GI50 [40] of the same molecule?
A: > 25 µM

Q: And the TGI [40]?
A: > 25 µM

Q: What about the GI50 [41] of the same molecule?
A: 4.75 µM

Q: And the TGI [41]?
A: > 17.9 µM

Q: What about the GI50 [42] of the same molecule?
A: > 25 µM

Q: What about the TGI [42] of the same molecule?
A: > 25 µM

Q: What about the GI50 [43] of the same molecule?
A: 9.2 µM

Q: And the TGI [43]?
A: > 25 µM

Q: And the GI50 [44]?
A: > 9.99 µM

Q: And the TGI [44]?
A: > 19.4 µM

Q: And the GI50 [45]?
A: 9.59 µM

Q: What about the TGI [45] of the same molecule?
A: > 25 µM

Q: What about the GI50 [46] of the same molecule?
A: 14.7 µM

Q: And the TGI [46]?
A: > 25 µM

Q: What about the GI50 [47] of the same molecule?
A: 17.6 µM

Q: And the TGI [47]?
A: > 25 µM

Q: What about the GI50 [48] of the same molecule?
A: 16 µM

Q: What about the TGI [48] of the same molecule?
A: > 25 µM

Q: What about the GI50 [49] of the same molecule?
A: 17.8 µM

Q: And the TGI [49]?
A: > 25 µM

Q: What about the GI50 [50] of the same molecule?
A: 13.1 µM

Q: What about the TGI [50] of the same molecule?
A: > 25 µM

Q: What about the GI50 [51] of the same molecule?
A: 8.49 µM

Q: What about the TGI [51] of the same molecule?
A: > 25 µM

Q: And the GI50 [52]?
A: 8.5 µM

Q: And the TGI [52]?
A: > 22.3 µM

Q: What about the GI50 [53] of the same molecule?
A: 22.4 µM

Q: What about the TGI [53] of the same molecule?
A: > 25 µM

Q: And the GI50 [54]?
A: 15.6 µM

Q: And the TGI [54]?
A: > 25 µM

Q: And the GI50 [55]?
A: > 21.8 µM

Q: What about the TGI [55] of the same molecule?
A: > 25 µM

Q: What about the GI50 [56] of the same molecule?
A: 10.1 µM

Q: And the TGI [56]?
A: > 25 µM

Q: What about the GI50 [57] of the same molecule?
A: 16.3 µM

Q: What about the TGI [57] of the same molecule?
A: > 25 µM
